Source: article PMC12627007, “HIV nucleocapsid proteins as targets for novel 1,2-benzisothiazol-3(2H)-one benzenesulfonamides: synthesis and antiretroviral activity” (Frontiers in Microbiology, 2025)
Like-named read-outs stand apart in the source and are kept apart here.

Columns and labels:
[1] = molecular target: T1, HIV-1 reverse transcriptase (Human immunodeficiency virus type 1 group M subtype B, UniProt P04585); assay: Reverse transcriptase enzyme assay; type: biochemical; conditions: for Inhibition of recombinant HIV-1 RT: at concentrations of 30 μM
T1 construct: recombinant HIV-1 reverse transcriptase

[2] = molecular target: T2, HIV-1 recombinant integrase (rIN) (Human immunodeficiency virus type 1 group M subtype B, UniProt P04585); assay: Integrase (rIN) enzyme assays: 3'-processing and strand transfer; type: biochemical; conditions: for Inhibition of recombinant HIV-1 IN: at concentrations of 30 μM
T2 construct: HIV-1 recombinant integrase (rIN); made in house
Description: ^aCompound concentration (µM) required to reduce the amount of 3’-end-labeled duplex of 21/19mers substrates, in 3’-processing and strand-transfer reactions catalyzed by the recombinant HIV-1 integrase, by 50%. Data represent mean values for three independent determinations.

[3] = tested on: HIV-1 SAQR (L10F, G48V, L90M); assay: Inhibition of virus-induced cytopathogenicity in MT-4 cells, PRI-resistant mutant SAQR; type: cell-based; conditions: for EC50: Human immunodeficiency virus 1, MT4, read-out: EC50 SAQR; for Selectivity Index (SI = CC50/EC50) SAQR: in round brackets
Method: (§1) HIV-1IIIB and HIV-2 CBL-20 strains were obtained from the supernatants of persistently infected H9/IIIB and CEM cells, respectively. HIV-1 and HIV-2 stock solutions had titres of 4.5 × 10^7 and 1.4 × 10^6 50% cell culture infectious doses (CCID50)/ml, respectively. […] The K103R + V179D + P225H mutant (EFVR) was derived from an IIIB strain passaged in MT-4 cells in the presence of Efavirenz (up to 2 μM). N119, A17 and EFV^R stock solutions had titres of 1.2 × 10^8, 2.1 × 10^7, and 4.0 × 10^7 CCID50/ml, respectively.
(§2) The activity of the test compounds against the replication of HIV-1 wt and mutant strains (N119, A17, EFV^R, AZT^R, MDR, SAQ^R) and HIV-2 wt in acutely infected cells was based on the inhibition of virus-induced cytopathogenicity in MT-4 and C8166 cells, respectively. Briefly, 50 μL of culture medium containing 1 × 10^4 cells was added to each well of flat-bottom microtitre trays containing 50 μL of culture medium with or without different serial concentrations of test compounds. Then, 20 μL of an HIV suspension (containing the appropriate amount of CCID50 required to cause complete cytopathogenicity on day 4, final multiplicity of infection [m.o.i.] 0.01) was added.

HIV-2 CBL-20 strain = assay: Inhibition of HIV-2-induced cytopathogenicity in C8166 cells (MTT); type: cell-based; conditions: for Selectivity Index (SI = CC50/EC50) HIV-2: in round brackets
Method: as §1, §2

[4] = Cytotoxicity in mock-infected MT-4 cells (MTT method); type: cell-based; conditions: human
Method: as §2, with “added. After incubation at 37 °C, cell viability was determined using the […] (MTT) method ([Pauwels et al., 1988]). The cytotoxicity of the test compounds was evaluated in parallel with their antiviral activity through the viability of mock-infected, treated cells, as monitored by the MTT method and described elsewhere ([Morellet et al., 1994]).” for “added.”

[5] = tested on: HIV-1 A17 (K103N + Y181C); assay: Inhibition of virus-induced cytopathogenicity in MT-4 cells, NNRTI-resistant mutant A17; type: cell-based; conditions: for EC50: Human immunodeficiency virus 1, MT4, read-out: EC50 A17; for Selectivity Index (SI = CC50/EC50) A17: in round brackets
Method: as §1, §2

[6] = tested on: HIV-1 MDR (74V, 41L, 106A, 215Y); assay: Inhibition of virus-induced cytopathogenicity in MT-4 cells, NRTI-resistant mutant MDR; type: cell-based; conditions: for EC50: Human immunodeficiency virus 1, MT4, read-out: EC50 MDR; for Selectivity Index (SI = CC50/EC50) MDR: in round brackets
Method: as §1, §2

[7] = tested on: HIV-1 EFVR (K103R + V179D + P225H); assay: Inhibition of virus-induced cytopathogenicity in MT-4 cells, NNRTI-resistant mutant EFVR; type: cell-based; conditions: for EC50: Human immunodeficiency virus 1, MT4, read-out: EC50 EFVR; for Selectivity Index (SI = CC50/EC50) EFVR: in round brackets
Method: as §1, §2

HIV-1 N119 (Y181C) = assay: Inhibition of virus-induced cytopathogenicity in MT-4 cells, NNRTI-resistant mutant N119; type: cell-based; conditions: for EC50: Human immunodeficiency virus 1, MT4, read-out: EC50 N119; for Selectivity Index (SI = CC50/EC50) N119: in round brackets
Method: as §1, §2

HIV-1 IIIB strain = assay: microbe, parasite or virus in culture; type: cell-based; conditions: for EC50: Human immunodeficiency virus 1, IIIB; for Selectivity Index (SI = CC50/EC50) HIV-1: IIIB strain, in round brackets
Method: as §1, §2

[8] = microbe, parasite or virus in culture; type: cell-based, HIV-1; conditions: all tested strains (HIV-1 wt, mutants, HIV-2)
Method: as §1, §2

[9] = tested on: HIV-1 AZTR (67N, 70R, 215F, 219Q); assay: Inhibition of virus-induced cytopathogenicity in MT-4 cells, NRTI-resistant mutant AZTR; type: cell-based; conditions: for EC50: Human immunodeficiency virus 1, MT4, read-out: EC50 AZTR; for Selectivity Index (SI = CC50/EC50) AZTR: in round brackets
Method: as §1, §2

cell-free HIV-2 = assay: Virucidal activity against cell-free HIV-2 (Reed-Muench titration); type: cell-based; conditions: 0 °C; compound 6 80 μM, AMPH-B 100 μM
Method: (§3) Cell-free, high-titre HIV-1 and HIV-2 stock solutions were exposed to the test compounds for 2 h at 0 °C or 37 °C. At the end of incubation, residual infectivity was determined using the Reed–Muench end-point titration method, as described below.
(§4) Titration was performed in C8166 cells using the standard limiting dilution method (dilution 1:2, four replica wells/dilution) in 96-well plates.

cell-free HIV-1 = assay: Virucidal activity against cell-free HIV-1 (Reed-Muench titration); type: cell-based; conditions: 0 °C; compound 6 80 μM, AMPH-B 100 μM
Method: as §3, §4

[10] = read-out: IC50 Strand-transfer, recombinant HIV-1 integrase
[11] = Human immunodeficiency virus 2, C8166, read-out: EC50 HIV-2

| SMILES | EC50 [3] [µM] | Selectivity Index (SI = CC50/EC50) SAQR [3] | EC50 (HIV-2 CBL-20 strain; [11]) [µM] | Selectivity Index (SI = CC50/EC50) HIV-2 (HIV-2 CBL-20 strain) | CC50 at 4 days [4] [µM] | EC50 [5] [µM] | EC50 [6] [µM] | Selectivity Index (SI = CC50/EC50) MDR [6] | EC50 [7] [µM] | Selectivity Index (SI = CC50/EC50) EFVR [7] | EC50 (HIV-1 N119 (Y181C)) [µM] | Selectivity Index (SI = CC50/EC50) N119 (HIV-1 N119 (Y181C)) | EC50 (HIV-1 IIIB strain; MT4, read-out: EC50 HIV-1) [µM] | Selectivity Index (SI = CC50/EC50) HIV-1 (HIV-1 IIIB strain) | Selectivity Index (SI) against all tested strains [8] | EC50 [9] [µM] | Selectivity Index (SI = CC50/EC50) AZTR [9] | Selectivity Index (SI = CC50/EC50) A17 [5] | further results |
| --- | --- | --- | --- | --- | --- | --- | --- | --- | --- | --- | --- | --- | --- | --- | --- | --- | --- | --- | --- |
| O=c1c2ccc(Cl)cc2sn1NS(=O)(=O)c1ccccc1Cl [Compound 19, 2-Chloro-N-(6-chloro-3-oxo-1,2-benzisothiazol-2(3H)-yl)benzenesulfonamide] | 21 ± 1 | 2 | 12 ± 2 | 5 | 60 ± 4 | ≥ 33 | 11 ± 2 | 5 | 7 ± 2 | 8 | 14 ± 3 | 4 | 11 ± 3 | 5 | around 10 | 14 ± 1 | 5 |  | IC50 [1]: > 30 µM; Inhibition of recombinant HIV-1 RT [1]: none of the benzenesulfonamides were active; IC50 [2]: > 30 µM; Inhibition of recombinant HIV-1 IN [2]: none of the benzenesulfonamides were active; IC50 [2, 10]: > 30 µM |
| Cc1cn([C@H]2C[C@H](N=[N+]=[N-])[C@@H](CO)O2)c(=O)[nH]c1=O [AZT, azidothymidine, reference compound] | 0.01 ± 0.005 |  | 0.008 ± 0.001 |  |  | 0.01 ± 0.003 | 0.2 ± 0.07 |  | 0.01 ± 0.002 |  | 0.02 ± 0.001 |  | 0.01 ± 0.003 |  |  | 0.2 ± 0.05 |  |  | CC50 ([4]; MT-4, MTT method): ≥ 20 µM |
| C[C@@H]1[C@H](O)[C@@H](C)/C=C/C=C/C=C/C=C/C=C/C=C/C=C/[C@H](O[C@@H]2O[C@H](C)[C@@H](O)[C@H](N)[C@@H]2O)C[C@@H]2O[C@](O)(C[C@@H](O)C[C@@H](O)[C@H](O)CC[C@@H](O)C[C@@H](O)CC(=O)O[C@H]1C)C[C@H](O)[C@H]2C(=O)O [AMPH-B, Amphotericin B, reference compound] |  |  |  |  |  |  |  |  |  |  |  |  |  |  |  |  |  |  | Effect on HIV-2 infectivity, incubation at 0 °C (cell-free HIV-2): more than 1 log10; Effect on HIV-1 infectivity, incubation at 0 °C (cell-free HIV-1): still able to reduce it by a high percentage; EC50 (HIV-2 CBL-20 strain; Human immunodeficiency virus 2, C8166, read-out: EC50 HIV-2 (Table 2)): 2 ± 0.3 µM; EC50 (HIV-1 IIIB strain; MT4, read-out: EC50 HIV-1 (Table 2)): 6 ± 3 µM |
| Cc1ccc(S(=O)(=O)Nn2sc3ccccc3c2=O)cc1 [Compound 7, 4-Methyl-N-(3-oxo-1,2-benzisothiazol-2(3H)-yl)benzenesulfonamide] | 9 ± 2 | 3 | 4 ± 0.7 | 8 | 35 ± 1 | 8 ± 1 | 6 ± 0.7 | 5 | 8 ± 3 | 4 | 5 ± 0.1 | 7 | 10 ± 3 | 3.5 | around 10 | 8 ± 1 | 4 | 4 | IC50 [1]: > 30 µM; Inhibition of recombinant HIV-1 RT [1]: none of the benzenesulfonamides were active; IC50 [2]: > 30 µM; Inhibition of recombinant HIV-1 IN [2]: none of the benzenesulfonamides were active; IC50 [2, 10]: > 30 µM |
| Cc1ccc2sn(NS(=O)(=O)c3ccccc3Cl)c(=O)c2c1 [Compound 17, 2-Chloro-N-(5-methyl-3-oxo-1,2-benzisothiazol-2(3H)-yl)benzenesulfonamide] | 6 ± 1 | 12 | 4 ± 0.5 | 18 | 73 ± 0.1 | 9 ± 3 | 3 ± 0.5 | 23 | 5 ± 2 | 14 | 5 ± 0.7 | 14 | 2 ± 1 | 36 | around 10 | 4 ± 0.7 | 18 | 8 |  |
| O=c1c2ccccc2sn1NS(=O)(=O)c1ccccc1F [Compound 10, 2-Fluoro-N-(3-oxo-1,2-benzisothiazol-2(3H)-yl)benzenesulfonamide] | 7 ± 1 | > 14 |  |  | > 100 | 7 ± 0.7 | 5 ± 0.5 | > 20 | 5 ± 2 | > 20 | 6 ± 3 | > 16 | 7 ± 0.8 | > 14 |  | 6 ± 0.5 | > 16 | > 14 |  |
| O=c1c2ccccc2sn1N(S(=O)(=O)c1ccc(Cl)cc1)S(=O)(=O)c1ccc(Cl)cc1 [Compound 24, 4-Chloro-N-[(4-chlorophenyl)sulfonyl]-N-(3-oxo-1,2-benzisothiazol-2(3H)-yl)benzenesulfonamide] | 63 |  |  |  | > 100 | 56 | 64 |  | 65 |  | 29 ± 1 |  | 71 ± 6 |  |  | 71 |  |  |  |
| O=c1c2ccccc2sn1NS(=O)(=O)c1ccccc1Cl [Compound 12, 2-Chloro-N-(3-oxo-1,2-benzisothiazol-2(3H)-yl)benzenesulfonamide] | 9 ± 2 | 8 |  |  | 73 ± 3 | 11 ± 2 | 7 ± 1 | 7 | 9 ± 0.5 | 8 | 7 ± 0.7 | 10 | 13 ± 2 | 5 |  | 9 ± 0.7 | 8 | 6 |  |
| O=c1c2ccccc2sn1N(S(=O)(=O)c1ccc([N+](=O)[O-])cc1)S(=O)(=O)c1ccc([N+](=O)[O-])cc1 [Compound 22, 4-Nitro-N-[(4-nitrophenyl)sulfonyl]-N-(3-oxo-1,2-benzisothiazol-2(3H)-yl)benzenesulfonamide] | 23 | > 4 |  |  |  | 20 | 25 | > 4 | 21 | > 4 | 20 | > 5 | 21 | > 4 |  | 24 | > 4 | > 5 | CC50 at 4 days ([4]; MT-4, MTT method): > 100 µM |
